Measured values: patent US20260242371A1, “LIPID PRODRUGS OF BROM[…] USES THEREOF” (priority 2023, published 2026)

Experiments:
[1] = patients given up to 22 mg; Schneckloth, R., et al., Circulation 1957; cited from earlier work
[2] = Pharmacokinetics of 2-bromo-LSD prodrugs in rats; details: male, Sprague-Dawley, rat, plasma, iv
[3] = Metabolism identification (MetID) assay in human hepatocytes; details: 10 μM bromolysergide, 3 hours, 37 degrees Celsius
5-HT2A receptor = 5-HT2A receptor (Homo sapiens, UniProt P28223); details: Lewis, V. et al, Cell Reports 2023; cited from earlier work
Sequence of 5-HT2A receptor (P28223 whole entry): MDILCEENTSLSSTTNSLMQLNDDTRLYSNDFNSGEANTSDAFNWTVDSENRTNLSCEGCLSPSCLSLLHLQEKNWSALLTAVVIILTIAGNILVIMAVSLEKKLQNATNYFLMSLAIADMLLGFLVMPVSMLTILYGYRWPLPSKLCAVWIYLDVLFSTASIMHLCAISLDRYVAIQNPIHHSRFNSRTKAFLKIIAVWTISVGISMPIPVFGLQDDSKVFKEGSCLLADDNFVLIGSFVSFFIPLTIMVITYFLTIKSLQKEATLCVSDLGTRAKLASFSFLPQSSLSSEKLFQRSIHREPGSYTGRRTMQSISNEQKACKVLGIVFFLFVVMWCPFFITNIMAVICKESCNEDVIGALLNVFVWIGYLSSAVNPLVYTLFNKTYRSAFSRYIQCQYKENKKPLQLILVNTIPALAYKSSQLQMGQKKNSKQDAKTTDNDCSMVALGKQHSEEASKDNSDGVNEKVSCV

5-HT2B receptor = 5-HT2B receptor (Homo sapiens, UniProt P41595); details: cited from earlier work
Sequence of 5-HT2B receptor (P41595 whole entry): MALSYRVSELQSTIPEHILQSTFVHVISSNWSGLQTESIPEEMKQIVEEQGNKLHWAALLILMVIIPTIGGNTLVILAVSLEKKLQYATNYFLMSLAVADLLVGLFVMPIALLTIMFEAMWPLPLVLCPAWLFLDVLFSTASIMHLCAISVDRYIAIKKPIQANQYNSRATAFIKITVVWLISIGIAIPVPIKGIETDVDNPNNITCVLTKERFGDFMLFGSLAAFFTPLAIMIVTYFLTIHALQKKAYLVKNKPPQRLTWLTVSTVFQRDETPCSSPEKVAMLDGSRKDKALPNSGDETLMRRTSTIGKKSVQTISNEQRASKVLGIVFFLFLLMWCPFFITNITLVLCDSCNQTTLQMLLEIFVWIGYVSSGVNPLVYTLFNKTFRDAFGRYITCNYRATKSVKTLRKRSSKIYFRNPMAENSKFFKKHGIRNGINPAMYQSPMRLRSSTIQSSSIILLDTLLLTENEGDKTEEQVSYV

[4] = Pharmacokinetics of 2-bromo-LSD prodrugs in non-human primates; details: cynomolgus monkey, plasma; for AUC(0-t) / Cmax: iv
[5] = Metabolism identification (MetID) assay in human liver microsomes S9 fraction; details: 10 μM bromolysergide, human liver microsomes S9 1 mg/mL, NADPH, one hour, 37° C.
[6] = Metabolism identification (MetID) assay in rat hepatocytes; details: 10 μM bromolysergide, 3 hours, 37 degrees Celsius

| SMILES | % of Total Human [3] [%] | % of Total Human_LM [5] [%] | % of Total Rat [6] [%] | also measured |
| --- | --- | --- | --- | --- |
| CCN(CC)C(=O)[C@@H]1C=C2c3cccc4[nH]c(Br)c(c34)C[C@H]2N(C)C1 [Compound 2BL, 2-bromo-lysergic acid diethylamide] | 41.3 | 30.0 | 18.5 | hallucinations in patients [1]: no hallucinations reported; AUC(0-t) [2]: 0.93 ± 0.1 µM·h; Cmax [2]: 890 ± 60 nM; activity at 5-HT2A receptor (5-HT2A receptor): partial agonism; activity at 5-HT2B receptor (5-HT2B receptor): antagonist; Tmax ([4]; oral): ~2 h; AUC(0-t) ([4]; female): 340 ± 38 ng·h/mL; Cmax ([4]; female): 340 ± 58 ng/mL; AUC(0-t) ([4]; male): 300 ± 40 ng·h/mL; Cmax ([4]; male): 280 ± 8.8 ng/mL |
| CCN(CC)C(=O)[C@@H]1C=C2c3cccc4[nH]c(Br)c(c34)C[C@H]2NC1 [Compound M387] | 3.0 | 3.0 | 2.5 | – |
| CN1C[C@H](C(=O)O)C=C2c3cccc4[nH]c(Br)c(c34)C[C@H]21 [Compound M346] | 14.3 | 0.9 | 0.5 | – |
| CCNC(=O)[C@@H]1C=C2c3cccc4[nH]c(Br)c(c34)C[C@H]2N(C)C1 [Compound M373] | 10.3 | 19.6 | 7.7 | – |
| CCN(CC)C(=O)[C@@H]1C=C2c3cccc4[nH]c(O)c(c34)C[C@H]2N(C)C1 [Compound M339] | 4.8 | 4.4 | 3.9 | – |
| CN1C[C@H](C(N)=O)C=C2c3cccc4[nH]c(Br)c(c34)C[C@H]21 [Compound M345] | 0.4 | 0.2 | 0.1 | – |
| CCNC(=O)[C@@H]1C=C2c3cccc4[nH]c(Br)c(c34)C[C@H]2NC1 [Compound M359] | 1.0 | 1.2 | 0.7 | – |
